In the supplement of paper PMC10307832:

Tests used:
Experiment in all cases: relative viability (nuclei count vs DMSO), 5 days (fraction); higher = more cells survive
[1] = compound: Cc1ccc(C(=O)Nc2cccc(C(F)(F)F)c2)cc1Nc1cncc(C(N)=O)c1 [ALW-II-49-7] + Cc1nc(Nc2ncc(C(=O)Nc3c(C)cccc3Cl)s2)cc(N2CCN(CCO)CC2)n1 [Dasatinib] (partner 0.075 µM)
How it was run: (§1)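 Dosing by pin tool came one day after lung cancer cell lines were seeded in 1536-well plates, using either one drug or a fixed anchor-drug dose plus five library-drug doses (not always all listed) in √10 steps. After 5 days, nuclei were counted on 4× images. Relative viability is treated-well nuclei count divided by vehicle-well nuclei count, and values are medians of duplicate plates.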

[2] = compound: Cc1ccc(C(=O)Nc2cccc(C(F)(F)F)c2)cc1Nc1cncc(C(N)=O)c1 [ALW-II-49-7] + NC(=O)Nc1cc(-c2cccc(F)c2)sc1C(=O)N[C@H]1CCCNC1 [AZD7762] (partner 0.2 µM)
How it was run: as §1

[3] = compound: Cc1ccc(C(=O)Nc2cccc(C(F)(F)F)c2)cc1Nc1cncc(C(N)=O)c1 [ALW-II-49-7] + Nc1ncn([C@H]2C[C@H](O)[C@@H](CO)O2)c(=O)n1 [Decitabine] (partner 2 µM)
How it was run: as §1

[4] = compound: Cc1nc(Nc2ncc(C(=O)Nc3c(C)cccc3Cl)s2)cc(N2CCN(CCO)CC2)n1 [Dasatinib] + CC(=O)Nc1cccc(-n2c(=O)n(C3CC3)c(=O)c3c(Nc4ccc(I)cc4F)n(C)c(=O)c(C)c32)c1 [Trametinib] (partner 0.02 µM)
How it was run: as §1

Cell Line	relative viability ([1]; first compound 0.08 µM)	relative viability ([1]; first compound 0.253 µM)	relative viability ([1]; first compound 0.8 µM)	relative viability ([1]; first compound 2.53 µM)	relative viability ([1]; first compound 8 µM)	relative viability ([2]; first compound 0.08 µM)	relative viability ([2]; first compound 0.253 µM)	relative viability ([2]; first compound 0.8 µM)	relative viability ([2]; first compound 2.53 µM)	relative viability ([2]; first compound 8 µM)	relative viability ([3]; first compound 0.08 µM)	relative viability ([3]; first compound 0.253 µM)	relative viability ([3]; first compound 0.8 µM)	relative viability ([3]; first compound 2.53 µM)	relative viability ([3]; first compound 8 µM)	relative viability ([4]; first compound 0.005 µM)	relative viability ([4]; first compound 0.01581 µM)	relative viability ([4]; first compound 0.05 µM)	relative viability ([4]; first compound 0.1581 µM)	relative viability ([4]; first compound 0.5 µM)
HCC-827	0.326	0.331	0.294	0.232	0.239	0.208	0.241	0.187	0.183	0.19	0.294	0.307	0.335	0.331	0.271	0.545	0.486	0.492	0.157	0.132
HOP-62	0.635	0.617	0.56	0.616	0.495	0.386	0.455	0.648	0.619	0.586	0.207	0.286	0.165	0.223	0.285	0.344	0.333	0.32	0.211	0.162
LC-2-ad	0.481	0.412	0.501	0.7	0.387	0.844	0.824	0.756	0.805	0.93	0.84	0.845	0.861	0.8	0.863	0.914	0.906	0.909	0.735	0.457
LCLC-97TM1	0.808	0.944	0.808	0.88	0.851	0.228	0.418	0.328	0.156	0.179	0.256	0.201	0.252	0.236	0.207	0.221	0.14	0.174	0.0952	0.0916
LCLC-103H	0.392	0.429	0.393	0.419	0.411	0.742	0.817	0.756	0.649	0.656	0.757	0.781	0.726	0.727	0.684	0.687	0.598	0.574	0.535	0.516
LK-2	–	0.271	0.252	0.31	0.336	0.447	0.437	0.427	–	0.332	0.393	0.288	0.301	–	0.252	0.765	0.399	0.414	0.263	0.246
LOU-NH91	0.544	0.588	0.521	0.504	0.414	0.567	0.774	0.782	–	0.596	0.785	0.824	0.844	–	0.861	0.79	0.752	0.698	0.562	0.393
LU99A	0.62	0.486	0.576	0.498	0.75	–	0.376	0.294	0.312	0.626	–	1.03	1	0.839	1.09	0.539	0.576	0.458	0.372	0.328
NCI-H520	0.218	0.192	0.202	0.172	0.177	–	–	–	–	–	0.559	0.472	0.497	0.531	0.561	0.614	0.322	0.298	0.144	0.205
NCI-H661	0.782	1.06	0.965	0.832	0.767	–	–	–	–	–	0.519	0.583	0.574	0.541	0.5	0.629	0.49	0.532	0.445	0.338
NCI-H1563	0.442	0.466	0.441	0.477	0.486	–	–	–	–	–	–	–	–	–	–	–	–	–	–	–
NCI-H1623	0.465	0.531	0.618	0.532	0.479	–	–	–	–	–	–	–	–	–	–	–	–	–	–	–
NCI-H1648	–	–	–	–	–	0.62	0.697	0.74	0.678	0.618	0.545	0.48	0.531	0.454	0.509	0.437	0.352	0.44	0.235	0.175
NCI-H1650	0.273	0.306	0.323	0.282	0.341	–	–	–	–	–	0.447	0.399	0.432	0.462	0.493	0.667	0.493	0.406	0.313	0.216
NCI-H1703	–	–	–	–	–	0.124	0.132	0.116	–	0.127	–	–	–	–	–	–	–	–	–	–
NCI-H2009	0.284	0.29	0.289	0.264	0.252	–	–	–	–	–	0.326	0.446	0.368	0.438	0.467	0.26	0.173	0.184	0.12	0.0876
NCI-H2023	0.547	0.547	0.603	0.573	0.437	–	–	–	–	–	0.226	0.214	0.255	0.249	0.347	0.487	0.49	0.432	0.364	0.326
NCI-H2228	0.57	0.391	0.509	0.538	0.455	–	–	–	–	–	–	–	–	–	–	0.463	0.776	0.556	0.39	0.249
SK-LU-1	0.17	0.207	0.206	0.175	0.197	–	–	–	–	–	0.658	0.61	0.489	0.639	0.5	0.349	0.306	0.291	0.247	0.252
SK-MES-1	0.353	0.351	0.296	0.33	0.222	–	–	–	–	–	0.354	0.35	0.473	0.445	0.398	0.566	0.475	0.361	0.217	0.157
SW 1573	0.473	0.399	0.568	0.514	0.304	–	–	–	–	–	0.442	0.601	0.654	0.44	0.423	0.531	–	0.475	0.33	0.433
